Test: Plasma pharmacokinetics after single oral dose of Δ8-THCV in MCT oil (LC-MS/MS, non-compartmental analysis)
Format: in vivo, human
Design: Clast (last quantifiable concentration): unit not given here
Conditions: for Clast (last quantifiable concentration) / tlast (time to last quantifiable concentration) / concentration at 0.5 h / concentration at 1 h / concentration at 2 h / concentration at 4 h / concentration at 6 h / concentration at 8 h: plasma; for plasma concentration: Predose; for concentration at 0.5 h / concentration at 1 h / concentration at 2 h / concentration at 4 h / concentration at 6 h / concentration at 8 h: human, oral
In short: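 Healthy participants received single oral Δ8-THCV in MCT oil (50 mg/mL; 12.5-200 mg, or placebo) after a high-fat, high-calorie breakfast, with ≥1-week washout. Plasma (K2EDTA) sampled predose and 0.5-8 h post-dose, assayed by validated LC-MS/MS including metabolites; PK by non-compartmental analysis, sub-LLOQ values set to 0.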

[1] = 12.5 mg single oral Δ8-THCV in MCT oil, Mean (±SD)
[2] = 12.5 mg single oral Δ8-THCV in MCT oil, Median (Range)
[3] = 25 mg single oral Δ8-THCV in MCT oil, Mean (±SD)
[4] = 25 mg single oral Δ8-THCV in MCT oil, Median (Range)
[5] = 50 mg single oral Δ8-THCV in MCT oil, Mean (±SD)
[6] = 50 mg single oral Δ8-THCV in MCT oil, Median (Range)
[7] = 100 mg single oral Δ8-THCV in MCT oil, Mean (±SD)
[8] = 100 mg single oral Δ8-THCV in MCT oil, Median (Range)
[9] = 200 mg single oral Δ8-THCV in MCT oil, Mean (±SD)
[10] = 200 mg single oral Δ8-THCV in MCT oil, Median (Range)
[11] = 12.5 mg, 12.5 mg Δ8-THCV dose, Mean (SD, %CV)
[12] = 12.5 mg, 12.5 mg Δ8-THCV dose, Median (IQ Range)
[13] = 25 mg, 25 mg Δ8-THCV dose, Mean (SD, %CV)
[14] = 25 mg, 25 mg Δ8-THCV dose, Median (IQ Range)
[15] = 50 mg, 50 mg Δ8-THCV dose, Mean (SD, %CV)
[16] = 50 mg, 50 mg Δ8-THCV dose, Median (IQ Range)

With `CCCc1cc(O)c2c(c1)OC(C)(C)[C@@H]1CC=C(C)C[C@@H]21` [Δ8-THCV, Δ8-tetrahydrocannabivarin] the “Clast (last quantifiable concentration)” value [1] was 0.9 (±0.3), the “tlast (time to last quantifiable concentration)” value (shortened to “tlast”) [1] was 5.3 (±2.3) and the “Clast (last quantifiable concentration)” value [2] was 0.7 (0.6–1.5). For the same molecule, the “tlast” value [2] was 5 (2–8), the “Clast (last quantifiable concentration)” value [3] was 1.1 (±0.4) and the “tlast” value [3] was 6.3 (±1.9). The “Clast (last quantifiable concentration)” value [4] was 1 (0.5–1.8), the “tlast” value [4] was 7 (4–8) and the “Clast (last quantifiable concentration)” value [5] was 2.3 (±1.5). For the same molecule, the “tlast” value [5] was 7.9 (±0.5), the “Clast (last quantifiable concentration)” value [6] was 2.2 (0.6–5.5) and the “tlast” value [6] was 8 (6–8). The “Clast (last quantifiable concentration)” value [7] was 4.1 (±3.1), the “tlast” value [7] was 8 (±0) and the “Clast (last quantifiable concentration)” value [8] was 3.1 (0.8–9.9). For the same molecule, the “tlast” value [8] was 8 (8–8), the “Clast (last quantifiable concentration)” value [9] was 21.2 (±23.2) and the “tlast” value [9] was 8 (±0). For the same molecule, the “Clast (last quantifiable concentration)” value [10] was 13.4 (1.5–87.6), the “tlast” value [10] was 8 (8–8) and the plasma concentration (12.5 mg Δ8-THCV dose, Mean (SD, %CV)) was 0 (±0, --) ng/mL. The plasma concentration (12.5 mg Δ8-THCV dose, Median (IQ Range)) was 0 (0–0) ng/mL, the plasma concentration (25 mg Δ8-THCV dose, Mean (SD, %CV)) was 0 (±0, --) ng/mL and the plasma concentration (25 mg Δ8-THCV dose, Median (IQ Range)) was 0 (0–0) ng/mL. For the same molecule, the plasma concentration (50 mg Δ8-THCV dose, Mean (SD, %CV)) was 0 (±0, --) ng/mL, the plasma concentration (50 mg Δ8-THCV dose, Median (IQ Range)) was 0 (0–0) ng/mL and the plasma concentration (100 mg Δ8-THCV dose, Mean (SD, %CV)) was 0 (±0, --) ng/mL. The plasma concentration (100 mg Δ8-THCV dose, Median (IQ Range)) was 0 (0–0) ng/mL, the plasma concentration (200 mg Δ8-THCV dose, Mean (SD, %CV)) was 0 (±0, --) ng/mL and the plasma concentration (200 mg Δ8-THCV dose, Median (IQ Range)) was 0 (0–0) ng/mL. For the same molecule, the “median AUClast ratio Δ8-THCV-COOH/Δ8-THCV/11-OH-Δ8-THCV” value (after the 200 mg dose, Δ8-THCV = 1) was 1, the concentration at 0.5 h [11] was 0 ng/mL and the concentration at 0.5 h [12] was 0 ng/mL. It also gave a concentration at 1 h [11] of 0.1 ng/mL, a concentration at 1 h [12] of 0 ng/mL and a concentration at 2 h [11] of 0.4 ng/mL. It also gave a concentration at 2 h [12] of 0 ng/mL, a concentration at 4 h [11] of 0.7 ng/mL and a concentration at 4 h [12] of 0.6 ng/mL. The concentration at 6 h [11] was 0.5 ng/mL, the concentration at 6 h [12] was 0 ng/mL and the concentration at 8 h [11] was 0.2 ng/mL. The concentration at 8 h [12] was 0 ng/mL, the concentration at 0.5 h [13] was 0 ng/mL and the concentration at 0.5 h [14] was 0 ng/mL. For the same molecule, the concentration at 1 h [13] was 0.3 ng/mL, the concentration at 1 h [14] was 0 ng/mL and the concentration at 2 h [13] was 1.4 ng/mL. It also gave a concentration at 2 h [14] of 0.3 ng/mL, a concentration at 4 h [13] of 1.8 ng/mL and a concentration at 4 h [14] of 1.5 ng/mL. It also gave a concentration at 6 h [13] of 0.9 ng/mL, a concentration at 6 h [14] of 0.7 ng/mL and a concentration at 8 h [13] of 0.4 ng/mL. For the same molecule, the concentration at 8 h [14] was 0.3 ng/mL, the concentration at 0.5 h [15] was 0.1 ng/mL and the concentration at 0.5 h [16] was 0 ng/mL. The concentration at 1 h [15] was 0.5 ng/mL, the concentration at 1 h [16] was 0 ng/mL and the concentration at 2 h [15] was 2.6 ng/mL. For the same molecule, the concentration at 2 h [16] was 0 ng/mL, the concentration at 4 h [15] was 4.3 ng/mL and the concentration at 4 h [16] was 2.4 ng/mL. For the same molecule, the concentration at 6 h [15] was 6.1 ng/mL, the concentration at 6 h [16] was 2.8 ng/mL and the concentration at 8 h [15] was 2.2 ng/mL. For the same molecule, the concentration at 8 h [16] was 2.2 ng/mL and the concentration at 0.5 h (100 mg, 100 mg Δ8-THCV dose, Mean (SD, %CV)) was 0.2 ng/mL.
